Laboratory results: patent publication US20090093539A1, “ANTI-ANGIOGENIC COMPOSITIONS AND METHODS OF USE THEREOF” (priority 2007, published 2009)

Tests used:
Assay type in all cases: cell-based
[1] = system: Bovine Cardio-Pulmonary Artery Endothelial (CPAE) cells; assay: endothelial cell proliferation assay (cellular acid phosphatase readout)
Procedure: An endothelial cell proliferation assay was carried out according to the procedures of Connally, et al. (1986) (Anal. Biochem. 152:136-140) with modifications (Liang and Wong (2000) ANGIOGENESIS: FROM THE MOLECULAR TO INTEGRATIVE PHARMACOLOGY, edited by Maradoudakis, Kluwer Academic/Plenum Publishers, New York, pp 209-223). Bovine Cardio-Pulmonary Artery Endothelial (CPAE) cells acquired from American Type Culture Collection (ATCC; ATCC No. CCL-209) were grown to nearly 95% confluence in MEM-10E. The cells were released from the tissue culture flask with a 0.25% trypsin solution and plated in 24-well tissue culture plates in the same culture medium at a density of 10,000 cells/well. After the plates were incubated for 8 hours at 37° C. in a 5% carbon dioxide incubator, assay samples and control samples were added. Each sample was loaded in two different wells at 100 μl/well to ensure reproducibility. After incubation with the sample for 60 hours, the medium was aspirated, and the number of cells was measured on the basis of the calorimetric measurement of cellular acid phosphatase.

[2] = system: SW480 (Colon Cancer) cancer cell line; assay: inhibition of cancer cell lines in vitro: SW480; conditions: about 2 micrograms per milliliter
From the text: (§1) 15,16-dihyrotanshinone I is also a potent inhibitor of several cancer cell lines in vitro, including the SW480 (Colon Cancer) and the HTB 72 (Melanoma) cancer cell lines. At a very low concentration of about 2 micrograms per milliliter, 100% inhibitions are achieved.

[3] = system: HTB 72 (Melanoma) cancer cell line; assay: inhibition of cancer cell lines in vitro: HTB 72; conditions: about 2 micrograms per milliliter
From the text: as §1

**Q.** Which inhibition at 50 µg/mL ([1]; Bos taurus, Endothelial cell, 50 μg/ml, 60 hours incubation, read-out: endothelial cell growth inhibition) does the source give for `Cc1cccc2c3c(ccc12)C1=C(C(=O)C3=O)C(C)CO1` (stereo not shown) [15,16-dihydrotanshinone I, 15,16-dihydrotanshinone] here?
**A.** 84.4%

**Q.** And the “inhibition of endothelial cell proliferation, concentration-dependent study (FIG. 1)” value ([1]; another 15,16-dihydrotanshinone I sample, result in words)?
**A.** inhibits endothelial cell proliferation in a concentration-dependent manner

**Q.** What about the “inhibition of SW480 (Colon Cancer) cell line” value [2] of the same molecule?
**A.** 100%

**Q.** And the “inhibition of HTB 72 (Melanoma) cell line” value [3]?
**A.** 100%
